Source: patent US20220362396A1, “AMINO-PYRAZINECARBOXAMIDE COMPOUNDS, CONJUGATES, AND USES THEREOF” (Silverback Therapeutics, Inc., priority 2018, published 2022)

Assays:
[1] = test system: TGFβ/SMAD Signaling Pathway SBE reporter cell line; experiment: TGFβ reporter assay, in vitro small molecule screening (luciferase); type: cell-based; conditions: TGFβ stimulation, luminescence
Method: TGFβ/SMAD Signaling Pathway SBE reporter cell line was obtained from BPS Bioscience. Cells were passed, expanded, and stored in liquid nitrogen as per the supplier's instructions with the exception that growth media is changed to DMEM-C with Geneticin (DMEM supplemented with 10% fetal bovine serum, 1×NEAA, 1 mM Pyruvate, 2 mM glutamine, 50 μg/mL penicillin, 50 U/mL streptomycin and 400 μg/mL of Geneticin). The assay media was MEM supplemented with 0.5% fetal bovine serum, 1×NEAA, 1 mM Pyruvate, 50 μg/mL penicillin and 50 U/mL streptomycin.
Test samples (at desired concentrations diluted in assay media) were added to a 96-well assay plate, 20 μL per well. Reporter cells were harvested from the tissue culture flasks by incubation in small quantity of PBS at 37° C. for two minutes after the media in the flask is removed and cells rinsed with PBS. Cells were counted and diluted in the assay media at approximately 0.5×10^6 cells/mL and then 80 μL/well of cells were added to the assay plate containing the 20 μL/well of test samples (or media only), and incubated for approximately 5-6 hours at 37° C. in a 5% CO2 humidified incubator. After that time, 15 μL of TGFβ diluted to 12 ng/mL in the assay media was added to the plate. Controls included TGFβ titration (from 50 to 0 ng/mL) without inhibitors, and media only (without cells, inhibitor or TGFβ). Plates were incubated at 37° C. in a 5% CO2 humidified incubator for 18 h. Luciferase substrate solution is subsequently added at 100 μL per well, incubated in the dark at room temperature for 15 min, and luminescence is measured using a luminometer. EC50 values and curve fits were obtained using Prism (GraphPad Software).

TGFBR2 = molecular target: T1, TGFBR2 (Homo sapiens, UniProt P37173); experiment: TGFBR2 RBC assay (enzyme inhibition assay, Reaction Biology Corp.); type: biochemical
T1 construct: purchased Reaction Biology Corp
Method: Compounds of the disclosure were also assayed by Reaction Biology Corp. using the TGFBR2 RBC assay (enzyme inhibition assay). […] NT refers to not tested.

T1 sequence (P37173 23-567): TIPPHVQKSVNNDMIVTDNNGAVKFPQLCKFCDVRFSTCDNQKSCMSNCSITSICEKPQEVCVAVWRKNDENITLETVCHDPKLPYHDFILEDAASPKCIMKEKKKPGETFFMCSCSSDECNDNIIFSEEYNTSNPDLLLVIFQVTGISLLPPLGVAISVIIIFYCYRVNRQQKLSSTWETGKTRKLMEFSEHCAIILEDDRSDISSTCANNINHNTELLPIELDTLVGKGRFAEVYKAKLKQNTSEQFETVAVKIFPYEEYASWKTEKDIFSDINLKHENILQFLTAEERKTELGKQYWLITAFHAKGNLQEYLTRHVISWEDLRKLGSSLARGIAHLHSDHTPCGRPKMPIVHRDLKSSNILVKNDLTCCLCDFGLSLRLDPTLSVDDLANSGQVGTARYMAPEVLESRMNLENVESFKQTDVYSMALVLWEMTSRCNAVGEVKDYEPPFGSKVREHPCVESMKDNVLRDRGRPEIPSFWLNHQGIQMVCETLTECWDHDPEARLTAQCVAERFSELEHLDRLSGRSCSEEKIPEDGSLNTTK

Row | SMILES | EC50 [1] [nM] | IC50 (TGFBR2) [nM]
1 | Cc1cc(CNC(=O)OCc2ccccc2)ccc1-c1cnc(N)c(C(=O)Nc2cnccc2N2CCOCC2)n1 [Compound 60] | 100 to 1000 | 
2 | COCCNc1ccncc1NC(=O)c1nc(-c2ccc(CCNC(=O)OCc3ccccc3)cc2)cnc1N [Compound 99] | > 1000 | 
3 | COCCNc1ccncc1NC(=O)c1nc(-c2ccc(CCN)cc2)cnc1N [Compound 100] | > 1000 | 
4 | NCCc1ccc(-c2cnc(N)c(C(=O)Nc3cnccc3-n3ccnc3-c3ccccc3)n2)cc1 [Compound 145] |  | 100 to 1000
5 | Nc1ncc(-c2ccc(CCNC(=O)OCc3ccccc3)cc2)nc1C(=O)Nc1cnccc1-n1ccnc1-c1ccccc1 [Compound 146] |  | 100 to 1000
6 | NCCc1ccc(-c2cnc(N)c(C(=O)Nc3cncc(-c4ccccc4[N+](=O)[O-])c3)n2)cc1 [Compound 147] |  | 50 to 100
7 | Nc1ncc(-c2ccc([C@@H]3CNC[C@H]3C(=O)O)cc2)nc1C(=O)Nc1cnccc1N1CCOCC1 [Compound 231] | > 1000 | 
8 | Nc1ncc(-c2ccc(N[C@@H]3CCNC3)cc2)nc1C(=O)Nc1cnccc1N1CCOCC1 [Compound 281] | 100 to 1000 | 
9 | CC(C)(C)OC(=O)N1CC[C@@H](Nc2ccc(-c3cnc(N)c(C(=O)Nc4cnccc4N4CCOCC4)n3)cc2)C1 [Compound 282] | 100 to 1000 | 
10 | Nc1ncc(-c2ccc(N3CCC[C@@H](N)C3)cc2)nc1C(=O)Nc1cnccc1N1CCOCC1 [Compound 283] | 100 to 1000 | 
11 | CC(C)(C)OC(=O)N[C@@H]1CCCN(c2ccc(-c3cnc(N)c(C(=O)Nc4cnccc4N4CCOCC4)n3)cc2)C1 [Compound 284] | 100 to 1000 | 
12 | Nc1ncc(-c2ccc(N3CCC[C@H](N)C3)cc2)nc1C(=O)Nc1cnccc1N1CCOCC1 [Compound 285] | 50 to 100 | 
13 | CC(C)(C)OC(=O)N[C@H]1CCCN(c2ccc(-c3cnc(N)c(C(=O)Nc4cnccc4N4CCOCC4)n3)cc2)C1 [Compound 286] | 100 to 1000 | 
14 | CC(S)CCC(=O)NCC(C)Oc1ccc(-c2cnc(N)c(C(=O)Nc3cnccc3N3CCOCC3)n2)cc1 (stereo not drawn) [Compound 287] | 100 to 1000 | 
15 | CC(CNC(=O)CCC(C)(C)S)Oc1ccc(-c2cnc(N)c(C(=O)Nc3cnccc3N3CCOCC3)n2)cc1 (stereo not drawn) [Compound 288] | 100 to 1000 | 
16 | Nc1ncc(-c2ccc(N3CCN(CCO)CC3)cc2)nc1C(=O)Nc1cnccc1N1CCOCC1 [Compound 289] | 50 to 100 | 
17 | CN(C)C1CCN(c2ccc(-c3cnc(N)c(C(=O)Nc4cnccc4N4CCOCC4)n3)cc2)CC1 [Compound 290] | < 50 | 
18 | CN(c1ccc(-c2cnc(N)c(C(=O)Nc3cnccc3N3CCOCC3)n2)cc1)C1CCN(C(=O)OC(C)(C)C)CC1 [Compound 291] | 100 to 1000 | 
19 | NCCN(CCO)c1ccc(-c2cnc(N)c(C(=O)Nc3cnccc3N3CCOCC3)n2)cc1 [Compound 292] | 100 to 1000 | 
20 | Nc1ncc(-c2ccc(N(CCO)CCNC(=O)OCc3ccccc3)cc2)nc1C(=O)Nc1cnccc1N1CCOCC1 [Compound 293] | 100 to 1000 | 
21 | COC(=O)[C@@H](C)N(C)c1ccc(-c2cnc(N)c(C(=O)Nc3cnccc3N3CCOCC3)n2)cc1 [Compound 294] | 100 to 1000 | 
22 | C[C@H](C(=O)O)N(C)c1ccc(-c2cnc(N)c(C(=O)Nc3cnccc3N3CCOCC3)n2)cc1 [Compound 295] | 100 to 1000 | 
23 | C[C@H](CO)N(C)c1ccc(-c2cnc(N)c(C(=O)Nc3cnccc3N3CCOCC3)n2)cc1 [Compound 296] | < 50 | 
24 | COC(=O)[C@H](C)N(C)c1ccc(-c2cnc(N)c(C(=O)Nc3cnccc3N3CCOCC3)n2)cc1 [Compound 297] | 100 to 1000 | 
25 | C[C@@H](C(=O)O)N(C)c1ccc(-c2cnc(N)c(C(=O)Nc3cnccc3N3CCOCC3)n2)cc1 [Compound 298] | 100 to 1000 | 
26 | CN(c1ccc(-c2cnc(N)c(C(=O)Nc3cnccc3N3CCOCC3)n2)cc1)[C@@H]1CCN(C(=O)OC(C)(C)C)C1 [Compound 300] | 100 to 1000 | 
27 | CN(c1ccc(-c2cnc(N)c(C(=O)Nc3cnccc3N3CCOCC3)n2)cc1)C1CCNCC1 [Compound 301] | 50 to 100 | 
